Results: patent publication US12077503B2, “Substituted cyclic amides and their use as herbicides” (FMC CORPORATION, priority 2015, dated 2024)

Assays:
Assay type in all cases: in vivo
Kochia (Kochia scoparia) [1] = experiment: Test A preemergence; details: Bassia scoparia, pre-emergence, 240 h, read-out: Plant response rating, Kochia
In short: (§1)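 In a loam soil and sand blend, planted seeds got a preemergence directed soil spray, and young plants at the one- to two-leaf stage, 2–10 cm high, got a postemergence application; ~10 d greenhouse hold; injury rated visually, 0 = none, 100 = complete control.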

[2] = system: barnyardgrass (Echinochloa crus-galli); experiment: Test A preemergence; details: Echinochloa crus-galli, pre-emergence, 240 h, read-out: Plant response rating, Barnyardgrass
In short: as §1

[3] = system: giant foxtail (Setaria faberii); experiment: Test A preemergence; details: Setaria faberi, pre-emergence, 240 h, read-out: Plant response rating, Foxtail, Giant
In short: as §1

[4] = system: pigweed (Amaranthus retroflexus); experiment: Test A preemergence; details: Amaranthus retroflexus, pre-emergence, 240 h, read-out: Plant response rating, Pigweed
[5] = system: ragweed (common ragweed, Ambrosia elatior); experiment: Test A preemergence; details: Ambrosia artemisiifolia, pre-emergence, 240 h, read-out: Plant response rating, Ragweed
In short: as §1

[6] = system: ryegrass, Italian (Italian ryegrass, Lolium multiflorum); experiment: Test A preemergence; details: Lolium multiflorum, pre-emergence, 240 h, read-out: Plant response rating, Ryegrass, Italian
In short: as §1

[7] = system: Galium (catchweed bedstraw, Galium aparine); experiment: Test A postemergence; details: Galium, post-emergence, 240 h
In short: as §1

Kochia (Kochia scoparia) [8] = experiment: Test A postemergence; details: Bassia scoparia, post-emergence, 240 h
In short: as §1

[9] = system: barnyardgrass (Echinochloa crus-galli); experiment: Test A postemergence; details: Echinochloa crus-galli, post-emergence, 240 h
In short: as §1

[10] = system: blackgrass (Alopecurus myosuroides); experiment: Test A postemergence; details: Alopecurus myosuroides, post-emergence, 240 h
In short: as §1

corn (Zea mays) = experiment: Test A postemergence; details: Zea mays, post-emergence, 240 h
In short: as §1

[11] = system: giant foxtail (Setaria faberii); experiment: Test A postemergence; details: Setaria faberi, post-emergence, 240 h
In short: as §1

[12] = system: pigweed (Amaranthus retroflexus); experiment: Test A postemergence; details: Amaranthus retroflexus, post-emergence, 240 h
In short: as §1

[13] = system: ragweed (common ragweed, Ambrosia elatior); experiment: Test A postemergence; details: Ambrosia artemisiifolia, post-emergence, 240 h
In short: as §1

[14] = system: wheat (Triticum aestivum); experiment: Test A postemergence; details: Triticum aestivum, post-emergence, 240 h
In short: as §1

[15] = 125 g ai/ha, preemergence, visual rating after approx. 10 d, 0 to 100 scale where 0 is no effect and 100 is complete control
[16] = Preemergence, 31 g ai/ha, 0 to 100 scale (0 no effect, 100 complete control)

CN1CC[C@H](c2cccc(OC(F)(F)F)c2)[C@@H](C(=O)Nc2ccc(F)c(F)c2F)C1=O [Compound 808]
pest or weed control at 125 g/ha (Kochia (Kochia scoparia) [1]; [15]): 0%
pest or weed control at 31 g/ha (Kochia (Kochia scoparia) [1]; [16]): 0%
pest or weed control at 125 g/ha [2, 15]: 100%
pest or weed control at 31 g/ha [2, 16]: 100%
pest or weed control at 125 g/ha [3, 15]: 90%
pest or weed control at 31 g/ha [3, 16]: 70%
pest or weed control at 125 g/ha [4, 15]: 0%
pest or weed control at 31 g/ha [4, 16]: 0%
pest or weed control at 125 g/ha [5, 15]: 0%
pest or weed control at 31 g/ha [5, 16]: 0%
pest or weed control at 125 g/ha [6, 15]: 30%
pest or weed control at 31 g/ha [6, 16]: 0%
pest or weed control at 125 g/ha ([7]; 125 g ai/ha, postemergence, visual injury rating after approximately 10 d, read-out: Galium plant response rating (0 to 100 scale, 0 no effect, 100 complete control)): 0%
pest or weed control at 31 g/ha ([7]; Postemergence, 31 g ai/ha, visual injury after approx. 10 d, 0 to 100 scale, 0 no effect, 100 complete control, read-out: Plant response rating, Galium): 0%
pest or weed control at 125 g/ha (Kochia (Kochia scoparia) [8]; 125 g ai/ha, postemergence, visual injury rating after approximately 10 d, read-out: Kochia plant response rating (0 to 100 scale, 0 no effect, 100 complete control)): 0%
pest or weed control at 31 g/ha (Kochia (Kochia scoparia) [8]; Postemergence, 31 g ai/ha, visual injury after approx. 10 d, 0 to 100 scale, 0 no effect, 100 complete control, read-out: Plant response rating, Kochia): 0%
pest or weed control at 125 g/ha ([9]; 125 g ai/ha, postemergence, visual injury rating after approximately 10 d, read-out: Barnyardgrass plant response rating (0 to 100 scale, 0 no effect, 100 complete control)): 70%
pest or weed control at 31 g/ha ([9]; Postemergence, 31 g ai/ha, visual injury after approx. 10 d, 0 to 100 scale, 0 no effect, 100 complete control, read-out: Plant response rating, Barnyardgrass): 50%
pest or weed control at 125 g/ha ([10]; 125 g ai/ha, postemergence, visual injury rating after approximately 10 d, read-out: Blackgrass plant response rating (0 to 100 scale, 0 no effect, 100 complete control)): 0%
pest or weed control at 31 g/ha ([10]; Postemergence, 31 g ai/ha, visual injury after approx. 10 d, 0 to 100 scale, 0 no effect, 100 complete control, read-out: Plant response rating, Blackgrass): 0%
plant injury at 125 g/ha (corn (Zea mays); 125 g ai/ha, postemergence, visual injury rating after approximately 10 d, read-out: Corn plant response rating (0 to 100 scale, 0 no effect, 100 complete control)): 0%
Corn plant response rating (crop injury, 0 = no effect, 100 = complete kill) at 31 g/ha (corn (Zea mays); Postemergence, 31 g ai/ha, visual injury after approx. 10 d, 0 to 100 scale, 0 no effect, 100 complete control): 0%
pest or weed control at 125 g/ha ([11]; 125 g ai/ha, postemergence, visual injury rating after approximately 10 d, read-out: Foxtail, Giant plant response rating (0 to 100 scale, 0 no effect, 100 complete control)): 80%
pest or weed control at 31 g/ha ([11]; Postemergence, 31 g ai/ha, visual injury after approx. 10 d, 0 to 100 scale, 0 no effect, 100 complete control, read-out: Plant response rating, Foxtail, Giant): 70%
pest or weed control at 125 g/ha ([12]; 125 g ai/ha, postemergence, visual injury rating after approximately 10 d, read-out: Pigweed plant response rating (0 to 100 scale, 0 no effect, 100 complete control)): 0%
pest or weed control at 31 g/ha ([12]; Postemergence, 31 g ai/ha, visual injury after approx. 10 d, 0 to 100 scale, 0 no effect, 100 complete control, read-out: Plant response rating, Pigweed): 0%
pest or weed control at 125 g/ha ([13]; 125 g ai/ha, postemergence, visual injury rating after approximately 10 d, read-out: Ragweed plant response rating (0 to 100 scale, 0 no effect, 100 complete control)): 0%
pest or weed control at 31 g/ha ([13]; Postemergence, 31 g ai/ha, visual injury after approx. 10 d, 0 to 100 scale, 0 no effect, 100 complete control, read-out: Plant response rating, Ragweed): 0%
plant injury at 125 g/ha ([14]; 125 g ai/ha, postemergence, visual injury rating after approximately 10 d, read-out: Wheat plant response rating (0 to 100 scale, 0 no effect, 100 complete control)): 0%
plant injury at 31 g/ha ([14]; Postemergence, 31 g ai/ha, visual injury after approx. 10 d, 0 to 100 scale, 0 no effect, 100 complete control, read-out: Plant response rating, Wheat): 0%
